Values of other authors in paper PMC8232766, “Chemical Composition and Immunomodulatory Activity of Essential Oils from Rhododendron albiflorum” (Molecules, 2021).

Experiments:
human neutrophils [1] = details: cited from earlier work; for Inhibition of agonist-induced neutrophil Ca2+ mobilization: previous studies; for Inhibition of agonist-induced Ca2+ mobilization in human neutrophils: found previously
human neutrophils [2] = system: human neutrophils; design: method as in PMID 27586050, PMID 25959257; details: direct effect; previous studies; cited from earlier work

| SMILES | Inhibition of agonist-induced neutrophil Ca2+ mobilization (human neutrophils [1]) | Inhibition of agonist-induced Ca2+ mobilization in human neutrophils (human neutrophils [1]) | Activation of neutrophil Ca2+ mobilization (human neutrophils [2]) |
| --- | --- | --- | --- |
| C=C1C2CCC(C2)C1(C)C (centres unmarked) [camphene] | no inhibitory effect |  |  |
| C=C1/C=C/[C@H](C(C)C)CC/C(C)=C/CC1 [germacrene D] |  | inhibited |  |
| C=C(C)[C@H]1CC=C(C)CC1 [limonene] | no inhibitory effect |  | no activating effects |
| C=CC(C)(O)CCC=C(C)C (centres unmarked) [linalool] | no inhibitory effect |  | no activating effects |
| C=CC(=C)CCC=C(C)C [myrcene] | no inhibitory effect |  | no activating effects |
| Cc1ccc(C(C)C)cc1 [p-cymene] | no inhibitory effect |  | no activating effects |
| C=C1CCC2(C(C)C)CC12 (centres unmarked) [sabinene] | no inhibitory effect |  | no activating effects |
| CC1=CCC(O)(C(C)C)CC1 (centres unmarked) [terpinen-4-ol] | no inhibitory effect |  | no activating effects |
| CC1=CCC(=C(C)C)CC1 [terpinolene] | no inhibitory effect |  | no activating effects |
| C/C1=C\CC/C(C)=C/CC(C)(C)/C=C/C1 [α-humulene] |  | inhibited |  |
| CC1=CCC2CC1C2(C)C (stereo not drawn) [α-pinene] | no inhibitory effect |  | no activating effects |
| CC1=CC=C(C(C)C)CC1 [α-terpinene] | no inhibitory effect |  | no activating effects |
| C=C1CC/C=C(\C)CC[C@@H]2[C@@H]1CC2(C)C [β-caryophyllene] |  | inhibited |  |
| C=C1CCC2CC1C2(C)C (stereo not drawn) [β-pinene] | no inhibitory effect |  | no activating effects |
| CC1=CCC(C(C)C)=CC1 [γ-terpinene] | no inhibitory effect |  | no activating effects |
